Experimental data published in article PMC7569882, “A Probeless Capacitive Biosensor for Direct Detection of Amyloid Beta 1-42 in Human Serum Based on an Interdigitated Chain-Shaped Electrode” (Micromachines, 2020).

B1: CRP: C-reactive protein, interferent in selectivity test (protein, UniProt P02741 19-224, looked up)
C-reactive protein: QTDMSRKAFVFPKESDTSYVSLKAPLTKPLKAFTVCLHFYTELSSTRGYSIFSYATKRQDNEILIFWSKDIGYSFTVGGSEILFEVPEVTVAPVHICTSWESASGIVEFWVDGKPRVRKSLKKGYTVGAEASIILGQEQDSFGGNFEGSQSLVGDIGNVNMWDFVLSPDEINTIYLGGPFSPNVLNWRALKYEVQGEVFTKPQLWP

Target: aβ 1-42 peptide
Test: not given
Details: Fluorescent; ref [43]; cited from earlier work
Source text: Table 2 Dissociation constants Kd of the interaction between aβ 1-42 peptide and various binding partners. | column: Kd (nM)

Molecule | Kd [µM]
CN(C)c1ccc(/C=C/C2=CC(/C=C/c3ccc(N(C)C)cc3)=[O+][B-](F)(F)O2)cc1 [CRANAD-2, (T-4)-((1E,6E)-1,7-bis(4-(dimethylamino)phenyl)-1,6-heptadiene-3,5-dionato-kO^3,kO^5)difluoro-boron] | 0.0387
CN(C)c1ccc(/C=C/C=C/C=C(C#N)C#N)cc1 [DANIR-2c] | 0.0269
N#CC(C#N)=Cc1ccc(-c2ccc(-c3ccc(O)cc3)s2)s1 [NIAD-4, {(50-(p-Hydroxyphenyl)-2,20-bithienyl-5-yl)-methylidene}-propanedinitrile] | 0.01

Test system: anti-aβ/SAM/ICE biosensor (anti-aβ antibody MOAB-2)
Test: Selectivity of biosensor: change in capacitance ΔC with different analytes
Assay type: binding
Details: 1 Hz, in HS; TNF-α 0.5 ng mL^−1, insulin 10^3 ng mL^−1, CRP 10^5 ng mL^−1; n = 3
Procedure: Electrical impedance spectroscopy (EIS) (EC-Lab, Sp-200, Bio-Logic Science Instruments, Seyssinet-Pariset, France) was used for the recording of impedance and capacitance of the biosensor in PBS (pH 7.4). The EIS output signal is measured by applying an input voltage of 10 mV in a frequency range from 100 mHz–100 Hz, to the working and reference electrode. To explore the clinical application, the capacitive anti-aβ/SAM/ICE biosensor was employed for the direct detection of aβ 1-42 peptide in HS. Firstly, the pure HS was diluted in 1× PBS buffer at the ratio (1:1000), to avoid matrix effects in the measurement. Next, 1 μg mL^−1 of aβ 1-42 in pure HS was made, and then differential concentrations of aβ from 10^−3 to 10^3 ng mL^−1 were diluted using HS (1:1000). Various concentrations of aβ (10^−3–10^3 ng mL^−1) were incubated in the HS (1:1000) with the biosensor for 20 min, and the capacitance was measured. To verify the selectivity of the anti-aβ/SAM/ICE biosensor, the effects of tumor necrosis factor-alpha (TNF-α, 0.5 ng mL^−1), insulin (10^3 ng mL^−1), and C-reactive protein (CRP, 10^5 ng mL^−1) in HS were characterized using the change in capacitance ΔC value at 1 Hz frequency (Figure 7a). […] Moreover, the fabricated aβ/SAM/ICE biosensors were kept in the refrigerator at 4 °C for storage. Then, the capacitance of the biosensor at 1 Hz was recorded in PBS at 24 °C of room temperature, on the 1st, 2nd, 3rd, 7th, and 14th day after taking it out to check the stability of the biosensor, as shown in Figure 7b.

Molecule | interference with aβ detection | ΔC response (change in capacitance)
TNF-α | no significant interference | did not change much compared to the ΔC response for aβ
insulin: insulin, interferent in selectivity test | no significant interference | did not change much compared to the ΔC response for aβ
B1 | no significant interference | did not change much compared to the ΔC response for aβ
